In patent US20260193293A1, “PEPTIDES CAPABLE OF INHIBITING PROTEIN-PROTEIN INTERACTIONS AT GABAB1A SUBUNIT AND USES THEREOF” (UNIVERSITY OF COPENHAGEN, priority 2022, published 2026):
Like-named read-outs stand apart in the source and are kept apart here. One block for each compound: values may come before it. Non-standard residues stand in square brackets, D forms with d. Residues, ends and D or L forms follow the SMILES beside them. Cya = N[C@@H](CS(=O)(=O)O)C(=O)O; NMeD = CN[C@@H](CC(=O)O)C(=O)O; Sar = CNCC(=O)O

Biological target: Sushi domains (SD1/2) protein
Experiment: Fluorescence polarization (FP) competition assay with AJAP-1probe, calculated Ki
Assay type: binding
Procedure, shortened: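 Competition against 25 nM TAMRA-labelled peptide probe binding SD1/2, in PBS pH 7.4 with 1% BSA at rt, read at 530/580 nm. IC50 from sigmoidal dose-response fits, at least triplicate; Ki calculated from IC50 using probe Kd from saturation binding.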

[1] = Table 4, truncation and elongation scans of APP epitope, read-out: Ki (nM) mean ± SEM
[2] = Table 7, Ala-, D-amino acids and N-methylation scans of APPWT, read-out: Ki (nM) mean ± SEM
[3] = Table 16, ncAAs incorporated peptides, read-out: Ki (nM) mean ± SEM

Ki (Table 5, elongation and truncation scan of AJAP-1 binding epitope, read-out: Ki (nM) mean ± SEM): 38000 ± 430 nM
SMILES: CC[C@H](C)[C@H](NC(C)=O)C(=O)N[C@@H](C)C(=O)N[C@@H](Cc1c[nH]c2ccccc12)C(=O)NCC(=O)N1CCC[C@H]1C(=O)N[C@H](C(=O)NCC(=O)N[C@@H](CC(=O)O)C(=O)N[C@@H](CCC(=O)O)C(=O)N[C@@H](CC(=O)O)C(N)=O)[C@@H](C)O [IAWGPTGDED] (Ac-IAWGPTGDED-NH2)

Ki (CPP tagged peptides overview, SD1/2 binding affinity, mean ± SEM, n ≥ 3, read-out: Ki): 280 ± 2 nM | Ki (Table 14, CPPs tagged peptides, read-out: Ki (nM) mean ± SEM): 280 ± 2 nM
SMILES: CC[C@H](C)[C@H](NC(=O)[C@H](Cc1c[nH]c2ccccc12)NC(=O)[C@H](CC(=O)O)NC(=O)[C@H](CC(=O)O)NC(=O)[C@H](CC(=O)O)NC(=O)[C@H](CCC(=O)O)NC(=O)[C@H](CO)NC(=O)CNC(=O)CNC(=O)CNC(=O)CNC(=O)[C@H](CCCNC(=N)N)NC(=O)[C@H](CCCNC(=N)N)NC(=O)[C@H](CCCNC(=N)N)NC(=O)[C@H](CCCNC(=N)N)NC(=O)[C@H](CCCNC(=N)N)NC(=O)[C@H](CCCNC(=N)N)NC(=O)[C@H](CCCNC(=N)N)NC(=O)[C@H](CCCNC(=N)N)NC(C)=O)C(=O)N[C@@H](CC(=O)O)C(=O)N[C@@H](Cc1c[nH]c2ccccc12)C(=O)N[C@@H](Cc1ccc(O)cc1)C(=O)N[C@@H](CC(=O)O)C(=O)N[C@@H](CO)C(=O)N[C@@H](CC(=O)O)C(=O)N[C@@H](CC(=O)O)C(=O)N[C@@H](CC(=O)O)C(N)=O [Peptide R8-FL-16] (Ac-RRRRRRRRGGGGSEDDDWIDWYDSDDD-NH2)

Ki (Table 12, deep mutational scanning validation variants of PIANPWT, read-out: Ki (nM) mean ± SEM): 792 ± 11 nM
SMILES: CC[C@H](C)[C@H](NC(=O)[C@H](C)NC(=O)[C@H](Cc1ccccc1)NC(=O)[C@@H]1CCCN1C(C)=O)C(=O)N[C@H](C(=O)N[C@@H](Cc1c[nH]c2ccccc12)C(=O)NCC(=O)N1CCC[C@H]1C(=O)N[C@H](C(=O)N[C@H](C(=O)N[C@@H](CO)C(=O)N[C@@H](CCCNC(=N)N)C(=O)N[C@@H](CCC(=O)O)C(=O)N[C@@H](CC(=O)O)C(N)=O)C(C)C)[C@@H](C)O)C(C)C [PFAIVWGPTVSRED] (Ac-PFAIVWGPTVSRED-NH2)

Ki (Table 6, elongation and truncation scan of PIANP binding epitope, read-out: Ki (nM) mean ± SEM): 579 ± 21 nM
SMILES: CC[C@H](C)[C@H](NC(=O)[C@H](C)NC(=O)[C@H](Cc1c[nH]c2ccccc12)NC(=O)[C@@H]1CCCN1C(C)=O)C(=O)N[C@H](C(=O)N[C@@H](Cc1c[nH]c2ccccc12)C(=O)NCC(N)=O)C(C)C [PWAIVWG] (Ac-PWAIVWG-NH2)

Ki [1]: 534 ± 13 nM
SMILES: CC(=O)N[C@@H](CCC(=O)O)C(=O)N[C@@H](CCC(=O)O)C(=O)N[C@@H](CC(=O)O)C(=O)N[C@@H](CC(=O)O)C(=O)N[C@@H](CO)C(=O)N[C@@H](CC(=O)O)C(=O)N[C@H](C(=O)N[C@@H](Cc1c[nH]c2ccccc12)C(=O)N[C@@H](Cc1c[nH]c2ccccc12)C(=O)NCC(=O)NCC(=O)N[C@@H](C)C(=O)N[C@@H](CC(=O)O)C(N)=O)C(C)C (Ac-EEDDSDVWWGGAD-NH2)

Ki [1]: 392 ± 14 nM
SMILES: CC(=O)N[C@@H](CCC(=O)O)C(=O)N[C@@H](CCC(=O)O)C(=O)N[C@@H](CC(=O)O)C(=O)N[C@@H](CC(=O)O)C(=O)N[C@@H](CO)C(=O)N[C@@H](CC(=O)O)C(=O)N[C@H](C(=O)N[C@@H](Cc1c[nH]c2ccccc12)C(=O)N[C@@H](Cc1c[nH]c2ccccc12)C(=O)NCC(=O)NCC(=O)N[C@@H](C)C(=O)N[C@@H](CC(=O)O)C(=O)N[C@H](C(=O)N[C@@H](CC(=O)O)C(=O)N[C@@H](Cc1ccc(O)cc1)C(=O)N[C@@H](C)C(=O)N[C@@H](CC(=O)O)C(=O)NCC(=O)NCC(=O)N[C@@H](CCC(=O)O)C(=O)N[C@@H](CC(=O)O)C(=O)N[C@@H](CCCCN)C(N)=O)[C@@H](C)O)C(C)C (Ac-EEDDSDVWWGGADTDYADGGEDK-NH2)

Ki [2]: 1830 ± 54 nM
SMILES: CC(=O)N[C@@H](CCC(=O)O)C(=O)N[C@@H](CC(=O)O)C(=O)N[C@@H](C)C(=O)N[C@@H](CO)C(=O)N[C@@H](CC(=O)O)C(=O)N[C@H](C(=O)N[C@@H](Cc1c[nH]c2ccccc12)C(=O)N[C@@H](Cc1c[nH]c2ccccc12)C(=O)NCC(=O)NCC(=O)N[C@@H](C)C(=O)N[C@@H](CC(=O)O)C(=O)N[C@H](C(=O)N[C@@H](CC(=O)O)C(N)=O)[C@@H](C)O)C(C)C (Ac-EDASDVWWGGADTD-NH2)

Ki (Table 8, in μM, read-out: Ki (nM) mean ± SEM): > 6250 nM
SMILES: CC[C@H](C)[C@H](NC(=O)[C@H](Cc1ccccc1)NC(=O)[C@H](CCC(=O)O)NC(=O)[C@@H](NC(=O)[C@H](CCC(=O)O)NC(C)=O)[C@@H](C)O)C(=O)N[C@@H](C)C(=O)N[C@@H](Cc1c[nH]c2ccccc12)C(=O)N(C)CC(=O)N1CCC[C@H]1C(=O)N[C@H](C(=O)NCC(=O)N[C@@H](CC(=O)O)C(=O)N[C@@H](CCC(=O)O)C(=O)N[C@@H](CC(=O)O)C(N)=O)[C@@H](C)O [ETEFIAW(N-Me-G)PTGDED] (Ac-ETEFIAW[Sar]PTGDED-NH2)

Ki (Table 1, affinity maturation, mean ± SEM, n ≥ 3, read-out: Ki): 4.6 ± 0.3 nM | Ki (Table 13, peptides for affinity maturation, read-out: Ki (nM) mean ± SEM): 4.6 ± 0.3 nM
SMILES: CC[C@H](C)[C@H](NC(=O)[C@H](Cc1ccc(O)cc1)NC(=O)[C@H](CC(=O)O)NC(=O)[C@H](CC(=O)O)NC(=O)[C@H](CCC(=O)O)NC(C)=O)C(=O)N[C@@H](CC(=O)O)C(=O)N[C@@H](Cc1c[nH]c2ccccc12)C(=O)N[C@@H](Cc1ccc(O)cc1)C(=O)N[C@@H](CC(=O)O)C(=O)N[C@@H](CO)C(=O)N[C@@H](CC(=O)O)C(=O)N[C@@H](CC(=O)O)C(=O)N[C@@H](CC(=O)O)C(N)=O [Peptide 18] (Ac-EDDYIDWYDSDDD-NH2)

Ki [2]: 653 ± 25 nM
SMILES: CC(=O)N[C@@H](CCC(=O)O)C(=O)N[C@@H](CC(=O)O)C(=O)N[C@@H](CC(=O)O)C(=O)N[C@@H](CO)C(=O)N[C@@H](CC(=O)O)C(=O)N[C@H](C(=O)N[C@@H](Cc1c[nH]c2ccccc12)C(=O)N[C@@H](Cc1c[nH]c2ccccc12)C(=O)NCC(=O)NCC(=O)N[C@@H](C)C(=O)N[C@@H](C)C(=O)N[C@H](C(=O)N[C@@H](CC(=O)O)C(N)=O)[C@@H](C)O)C(C)C (Ac-EDDSDVWWGGAATD-NH2)

Ki [2]: 18900 ± 554 nM
SMILES: CC(=O)N[C@@H](CCC(=O)O)C(=O)N[C@@H](CC(=O)O)C(=O)N[C@@H](CC(=O)O)C(=O)N[C@@H](CO)C(=O)N[C@@H](CC(=O)O)C(=O)N[C@H](C(=O)N[C@@H](Cc1c[nH]c2ccccc12)C(=O)N[C@@H](Cc1c[nH]c2ccccc12)C(=O)N(C)CC(=O)NCC(=O)N[C@@H](C)C(=O)N[C@@H](CC(=O)O)C(=O)N[C@H](C(=O)N[C@@H](CC(=O)O)C(N)=O)[C@@H](C)O)C(C)C (Ac-EDDSDVWW[Sar]GADTD-NH2)

Ki [3]: 12 ± 0.3 nM | Ki (purified peptides, read-out: Ki): 11.8 nM
SMILES: CC[C@H](C)[C@H](NC(=O)[C@H](Cc1ccccc1)NC(=O)[C@H](CCC(=O)O)NC(=O)[C@@H](NC(=O)[C@H](CCC(=O)O)NC(C)=O)[C@@H](C)O)C(=O)N[C@@H](CS(=O)(=O)O)C(=O)N[C@@H](Cc1c[nH]c2ccccc12)C(=O)NCC(=O)N1CCC[C@H]1C(=O)N[C@H](C(=O)NCC(=O)N[C@@H](CC(=O)O)C(=O)N[C@@H](CCC(=O)O)C(=O)N[C@@H](CC(=O)O)C(N)=O)[C@@H](C)O [ETEFI(Cya)WGPTGDED, Ac-ETEFI(Cya)WGPTGDED-NH2] (Ac-ETEFI[Cya]WGPTGDED-NH2)

Ki [2]: 403 ± 14 nM
SMILES: CC(=O)N[C@@H](CCC(=O)O)C(=O)N[C@@H](CC(=O)O)C(=O)N[C@@H](CC(=O)O)C(=O)N[C@@H](CO)C(=O)N[C@@H](CC(=O)O)C(=O)N[C@H](C(=O)N[C@@H](Cc1c[nH]c2ccccc12)C(=O)N[C@@H](Cc1c[nH]c2ccccc12)C(=O)NCC(=O)NCC(=O)N[C@@H](C)C(=O)N(C)[C@@H](CC(=O)O)C(=O)N[C@H](C(=O)N[C@@H](CC(=O)O)C(N)=O)[C@@H](C)O)C(C)C (Ac-EDDSDVWWGGA[NMeD]TD-NH2)

Ki (Table 11, cells printed in μM, read-out: Ki (nM) mean ± SEM): > 6250 nM
SMILES: CC[C@H](C)[C@H](NC(=O)[C@H](CCCCN)NC(=O)[C@H](CCC(=O)O)NC(=O)[C@@H](NC(=O)[C@H](CCC(=O)O)NC(C)=O)[C@@H](C)O)C(=O)N[C@@H](C)C(=O)N[C@@H](Cc1c[nH]c2ccccc12)C(=O)NCC(=O)N1CCC[C@H]1C(=O)N[C@H](C(=O)NCC(=O)N[C@@H](CC(=O)O)C(=O)N[C@@H](CCC(=O)O)C(=O)N[C@@H](CC(=O)O)C(N)=O)[C@@H](C)O [ETEKIAWGPTGDED] (Ac-ETEKIAWGPTGDED-NH2)

Ki [1]: 343 ± 17 nM
SMILES: CC(=O)N[C@@H](CCC(=O)O)C(=O)N[C@@H](CCC(=O)O)C(=O)N[C@@H](CC(=O)O)C(=O)N[C@@H](CC(=O)O)C(=O)N[C@@H](CO)C(=O)N[C@@H](CC(=O)O)C(=O)N[C@H](C(=O)N[C@@H](Cc1c[nH]c2ccccc12)C(=O)N[C@@H](Cc1c[nH]c2ccccc12)C(=O)NCC(=O)NCC(=O)N[C@@H](C)C(=O)N[C@@H](CC(=O)O)C(=O)N[C@H](C(=O)N[C@@H](CC(=O)O)C(=O)N[C@@H](Cc1ccc(O)cc1)C(=O)N[C@@H](C)C(=O)N[C@@H](CC(=O)O)C(=O)NCC(N)=O)[C@@H](C)O)C(C)C (Ac-EEDDSDVWWGGADTDYADG-NH2)

Ki [3]: 109 ± 4 nM
SMILES: COc1ccc(C[C@H](NC(=O)[C@H](Cc2c[nH]c3ccccc23)NC(=O)[C@H](Cc2c[nH]c3ccccc23)NC(=O)[C@@H](NC(=O)[C@H](CC(=O)O)NC(=O)[C@H](CO)NC(=O)[C@H](CC(=O)O)NC(=O)[C@H](CC(=O)O)NC(=O)[C@H](CCC(=O)O)NC(C)=O)C(C)C)C(=O)NCC(=O)N[C@@H](C)C(=O)N[C@@H](CC(=O)O)C(=O)N[C@H](C(=O)N[C@@H](CC(=O)O)C(N)=O)[C@@H](C)O)cc1 (Ac-EDDSDVWWY(Me)GADTD-NH2)

Ki (Table 9, Ala-, D-amino acids and N-methylation scans of PIANPWT, read-out: Ki (nM) mean ± SEM): 552 ± 20 nM
SMILES: CC[C@H](C)[C@H](NC(=O)[C@H](C)NC(=O)[C@H](Cc1c[nH]c2ccccc12)NC(=O)[C@H](C)NC(C)=O)C(=O)N[C@H](C(=O)N[C@@H](Cc1c[nH]c2ccccc12)C(=O)NCC(=O)N1CCC[C@H]1C(=O)N[C@H](C(=O)N[C@H](C(=O)N[C@@H](CO)C(=O)N[C@@H](CCCNC(=N)N)C(=O)N[C@@H](CCC(=O)O)C(=O)N[C@@H](CC(=O)O)C(N)=O)C(C)C)[C@@H](C)O)C(C)C [AWAIVWGPTVSRED] (Ac-AWAIVWGPTVSRED-NH2)
